Experimental data taken from US9676782B2, “Substituted pyrazolo[1,5-a]pyrazines as negative allosteric modulators of metabotropic glutamate receptor 3” (Vanderbilt University, priority 2014, dated 2017).
Read-outs that look alike come from different tables or passages of the source.

Experiments:
rat mGlu5 = rat mGlu5 (Rattus norvegicus (Rat), UniProt P31424); assay: mGlu5 Ca2+ flux assay; assay type: cell-based; settings: for Emax at 30 µM: read-out: rat mGlu5 Glu max (%); for Fold selectivity (mGlu3 vs. mGlu5): ratio of rat mGlu5 EC50 or IC50 to rat mGlu3 IC50
Method in brief: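 Ca2+ flux read kinetically (FDSS7000) after overnight culture at 37° C/5% CO2 and a 5 min room-temperature buffer step following dye removal. Signals expressed per well as F/F0 and normalized to peak glutamate response; EC50 fitted by free 4-parameter logistic, three replicates per concentration equally weighted.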

rat mGlu3 = rat mGlu3 (Rattus norvegicus (Rat), UniProt P31422); assay: mGlu3 Ca2+ flux assay; assay type: cell-based; settings: for IC50: read-out: rat mGlu3 IC50; for remaining activity at 30 µM: amplitude of response at 30 μM test compound as % of maximal response to glutamate, read-out: rat mGlu3 Glu max (%)
Method in brief: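 This calcium mobilization assay used rat mGlu3 cells cultured overnight (37° C., 5% CO2) and read on the FDSS7000 after a 10 minute room-temperature incubation in 20 μL assay buffer. Each of 360 readings per well was divided by its initial value (F/F0). Potency came from fitting normalized responses against log concentration with an unconstrained 4 parameter logistic equation, weighting triplicate points equally.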

[1] = NAM potency, decrease of glutamate EC80 response, >30,000 = no measurable activity, >10,000 = no plateau
[2] = read-out: rat mGlu5 EC50 or IC50
[3] = PAM, amplitude of response at 30 μM test compound as % of maximal response to glutamate

rat mGlu5, sequence (P31424 21-1203): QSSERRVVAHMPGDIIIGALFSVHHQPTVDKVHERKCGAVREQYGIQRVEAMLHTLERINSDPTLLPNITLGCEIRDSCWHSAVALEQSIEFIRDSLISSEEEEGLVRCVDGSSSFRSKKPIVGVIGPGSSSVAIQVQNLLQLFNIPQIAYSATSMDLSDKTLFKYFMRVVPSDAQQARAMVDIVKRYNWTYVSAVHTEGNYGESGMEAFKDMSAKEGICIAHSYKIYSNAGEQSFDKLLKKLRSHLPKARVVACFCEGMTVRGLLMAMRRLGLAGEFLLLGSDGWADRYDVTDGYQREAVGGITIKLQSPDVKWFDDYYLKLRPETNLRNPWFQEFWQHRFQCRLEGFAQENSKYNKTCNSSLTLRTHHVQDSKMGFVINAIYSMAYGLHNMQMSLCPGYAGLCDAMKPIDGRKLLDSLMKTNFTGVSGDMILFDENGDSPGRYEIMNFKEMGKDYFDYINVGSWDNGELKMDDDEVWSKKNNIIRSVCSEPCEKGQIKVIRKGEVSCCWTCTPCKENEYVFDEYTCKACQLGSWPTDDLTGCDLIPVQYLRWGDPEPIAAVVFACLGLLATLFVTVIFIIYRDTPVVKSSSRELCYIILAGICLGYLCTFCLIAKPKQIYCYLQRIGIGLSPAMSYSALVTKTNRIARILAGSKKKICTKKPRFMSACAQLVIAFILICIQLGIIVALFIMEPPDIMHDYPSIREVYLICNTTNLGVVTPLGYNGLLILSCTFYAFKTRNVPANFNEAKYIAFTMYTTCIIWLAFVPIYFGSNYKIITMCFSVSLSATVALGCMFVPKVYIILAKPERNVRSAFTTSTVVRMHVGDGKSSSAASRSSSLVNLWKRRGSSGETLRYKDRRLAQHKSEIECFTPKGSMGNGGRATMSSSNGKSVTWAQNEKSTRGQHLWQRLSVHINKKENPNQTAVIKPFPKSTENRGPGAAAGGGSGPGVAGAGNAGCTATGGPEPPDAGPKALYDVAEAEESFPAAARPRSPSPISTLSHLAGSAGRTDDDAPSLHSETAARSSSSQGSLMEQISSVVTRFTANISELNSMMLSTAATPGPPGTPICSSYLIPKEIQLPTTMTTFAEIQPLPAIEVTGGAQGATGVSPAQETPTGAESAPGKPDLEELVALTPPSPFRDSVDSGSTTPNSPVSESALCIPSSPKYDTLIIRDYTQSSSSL
rat mGlu3, sequence (P31422 23-879): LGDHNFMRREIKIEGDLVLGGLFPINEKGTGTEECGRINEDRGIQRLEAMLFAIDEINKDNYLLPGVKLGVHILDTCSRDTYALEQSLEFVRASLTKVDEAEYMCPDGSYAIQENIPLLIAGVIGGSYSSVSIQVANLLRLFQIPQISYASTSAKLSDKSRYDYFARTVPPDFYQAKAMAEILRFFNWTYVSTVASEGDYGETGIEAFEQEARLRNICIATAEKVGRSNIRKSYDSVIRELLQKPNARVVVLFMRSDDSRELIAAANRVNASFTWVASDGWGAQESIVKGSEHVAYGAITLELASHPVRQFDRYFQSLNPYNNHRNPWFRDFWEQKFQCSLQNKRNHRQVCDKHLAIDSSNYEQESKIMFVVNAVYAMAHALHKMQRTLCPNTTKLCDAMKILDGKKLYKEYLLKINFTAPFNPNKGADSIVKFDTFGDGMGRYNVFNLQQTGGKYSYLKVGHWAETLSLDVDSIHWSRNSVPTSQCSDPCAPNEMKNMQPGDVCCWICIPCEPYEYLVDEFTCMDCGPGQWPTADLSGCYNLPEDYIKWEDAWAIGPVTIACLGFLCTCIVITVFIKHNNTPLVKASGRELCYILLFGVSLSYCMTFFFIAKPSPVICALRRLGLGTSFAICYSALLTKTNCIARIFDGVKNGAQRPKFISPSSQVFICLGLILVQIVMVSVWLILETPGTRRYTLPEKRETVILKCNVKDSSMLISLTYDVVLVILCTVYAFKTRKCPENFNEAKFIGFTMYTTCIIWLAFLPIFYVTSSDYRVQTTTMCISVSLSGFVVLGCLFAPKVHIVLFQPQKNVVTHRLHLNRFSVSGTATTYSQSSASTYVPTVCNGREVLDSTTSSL

Row | Compound | IC50 (rat mGlu5; compound noted as NAM or partial antagonist (PAnt) at mGlu5, glutamate EC80, read-out: rat mGlu5 EC50 or IC50) [nM] | Emax at 30 µM (rat mGlu5; compound noted as NAM or partial antagonist (PAnt) at mGlu5, response at 30 μM as % of maximal glutamate response) [%] | Fold selectivity (mGlu3 vs. mGlu5) (rat mGlu5) | IC50 (rat mGlu3; [1]) [nM] | remaining activity at 30 µM (rat mGlu3) [%] | EC50 (rat mGlu5; [2]) [nM] | IC50 (rat mGlu3) [nM] | Emax at 30 µM (rat mGlu5; [3]) [%]
1 | C[C@@H]1CN(c2ccc(F)cc2)C(=O)c2cc(CNc3cccc(OC(F)F)c3)nn21 [Compound 54, (R)-2-(((3-(difluoromethoxy)phenyl)amino)methyl)-5-(4-fluorophenyl)-7-methyl-6,7-dihydropyrazolo[1,5-a]pyrazin-4(5H)-one] | > 10000 | 36 | >4.9 | 2040 | 3.56 | – | – | –
2 | Cc1nc(N2CCn3nc(CNc4ccc(OC(F)F)cc4F)cc3C2=O)cs1 [Compound 140, 2-(((4-(difluoromethoxy)-2-fluorophenyl)amino)methyl)-5-(2-methylthiazol-4-yl)-6,7-dihydropyrazolo[1,5-a]pyrazin-4(5H)-one] | – | – | >48 | 624 | 2.43 | > 30000 | – | –
3 | CN(Cc1cc2n(n1)CCN(c1ccc(F)cc1)C2=O)c1ccccc1 [Compound 82, 5-(4-fluorophenyl)-2-((methyl(phenyl)amino)methyl)-6,7-dihydropyrazolo[1,5-a]pyrazin-4(5H)-one] | – | – | >24 | 1220 | 1.01 | > 30000 | – | –
4 | O=C1c2cc(CNc3cccc(Cl)n3)nn2CCN1c1ccc(F)cc1 [Compound 163, 2-(((6-chloropyridin-2-yl)amino)methyl)-5-(4-fluorophenyl)-6,7-dihydropyrazolo[1,5-a]pyrazin-4(5H)-one] | – | – | >25 | 1180 | 1.15 | > 30000 | – | –
5 | O=C1c2cc(CNc3ccc(OC(F)F)cc3F)nn2CCN1c1cccc(F)n1 [Compound 138, 2-(((4-(difluoromethoxy)-2-fluorophenyl)amino)methyl)-5-(6-fluoropyridin-2-yl)-6,7-dihydropyrazolo[1,5-a]pyrazin-4(5H)-one] | – | – | >36 | – | 2.05 | > 30000 | 821 | –
6 | CC(C)c1ccc(NCc2cc3n(n2)CCN(c2ccc(F)cc2)C3=O)cc1 [Compound 23, 5-(4-fluorophenyl)-2-(((4-isopropylphenyl)amino)methyl)-6,7-dihydropyrazolo[1,5-a]pyrazin-4(5H)-one] | – | – | >3 | – | 28.9 | > 30000 | > 10000 | –
7 | O=C1c2cc(CNc3ccc(OC(F)(F)F)cc3)nn2CCN1c1ccc(F)cc1 [Compound 21, 5-(4-fluorophenyl)-2-(((4-(trifluoromethoxy)phenyl)amino)methyl)-6,7-dihydropyrazolo[1,5-a]pyrazin-4(5H)-one] | – | – | >3 | – | 13.3 | > 30000 | > 10000 | –
8 | O=C1c2cc(CNc3cccc(C(F)(F)F)n3)nn2CCN1c1ccc(F)cc1 [Compound 166, 5-(4-fluorophenyl)-2-(((6-(trifluoromethyl)pyridin-2-yl)amino)methyl)-6,7-dihydropyrazolo[1,5-a]pyrazin-4(5H)-one] | – | – | >4.2 | 2350 | 2.06 | > 10000 | – | 50.6
9 | Cc1cccnc1NCc1cc2n(n1)CCN(c1ccc(F)cc1)C2=O [Compound 160, 5-(4-fluorophenyl)-2-(((3-methylpyridin-2-yl)amino)methyl)-6,7-dihydropyrazolo[1,5-a]pyrazin-4(5H)-one] | – | – | >6.3 | 4700 | 0.18 | > 30000 | – | –
10 | C[C@@H]1CN(c2ccc(F)cc2)C(=O)c2cc(CNc3ccc(F)cc3F)nn21 [Compound 75, (R)-2-(((2,4-difluorophenyl)amino)methyl)-5-(4-fluorophenyl)-7-methyl-6,7-dihydropyrazolo[1,5-a]pyrazin-4(5H)-one] | – | – | 7.56 | 771 | 2.66 | 5830 | – | 85.6
11 | Cc1cccc(NCc2cc3n(n2)[C@H](C)CN(c2ccc(F)cc2)C3=O)c1 [Compound 50, (R)-5-(4-fluorophenyl)-7-methyl-2-((m-tolylamino)methyl)-6,7-dihydropyrazolo[1,5-a]pyrazin-4(5H)-one] | – | – | >9.8 | 3050 | 0.09 | > 30000 | – | –
12 | C[C@@H]1CN(c2ccc(F)cc2)C(=O)c2cc(CNc3ccc(OC(F)F)cc3)nn21 [Compound 64, (R)-2-(((4-(difluoromethoxy)phenyl)amino)methyl)-5-(4-fluorophenyl)-7-methyl-6,7-dihydropyrazolo[1,5-a]pyrazin-4(5H)-one] | – | – | >22 | 1350 | 2.46 | > 30000 | – | –
13 | O=C1c2cc(CNc3ccc4c(c3)OC(F)(F)O4)nn2CCN1c1ccc(F)cc1 [Compound 39, 2-(((2,2-difluorobenzo[d][1,3]dioxol-5-yl)amino)methyl)-5-(4-fluorophenyl)-6,7-dihydropyrazolo[1,5-a]pyrazin-4(5H)-one] | – | – | >3.4 | 2880 | 1.95 | > 10000 | – | 75.7
14 | Cc1cccc(NCc2cc3n(n2)CCN(c2ccc(F)cc2)C3=O)n1 [Compound 157, 5-(4-fluorophenyl)-2-(((6-methylpyridin-2-yl)amino)methyl)-6,7-dihydropyrazolo[1,5-a]pyrazin-4(5H)-one] | – | – | >9.3 | 3210 | -0.19 | > 30000 | – | –
15 | C[C@H]1CN(c2ccc(F)cc2)C(=O)c2cc(CNc3cccc(F)c3)nn21 [Compound 47, (S)-5-(4-fluorophenyl)-2-(((3-fluorophenyl)amino)methyl)-7-methyl-6,7-dihydropyrazolo[1,5-a]pyrazin-4(5H)-one] | – | – | 0.58 | – | 1.77 | 1070 | 1840 | 78.3
16 | C[C@H]1CN(c2ccc(F)cc2)C(=O)c2cc(CNc3ccc(OC(F)F)cc3)nn21 [Compound 65, (S)-2-(((4-(difluoromethoxy)phenyl)amino)methyl)-5-(4-fluorophenyl)-7-methyl-6,7-dihydropyrazolo[1,5-a]pyrazin-4(5H)-one] | – | – | >22 | 1340 | 2.16 | > 30000 | – | –
17 | COc1ccc(N(C)Cc2cc3n(n2)CCN(c2cccc(OC)c2)C3=O)cc1 [Compound 113, 5-(3-methoxyphenyl)-2-(((4-methoxyphenyl)(methyl)amino)methyl)-6,7-dihydropyrazolo[1,5-a]pyrazin-4(5H)-one] | – | – | >26 | 1120 | 0.7 | > 30000 | – | –
18 | COc1ccc(N(C)Cc2cc3n(n2)CCN(c2cccc(C#N)c2)C3=O)cc1 [Compound 116, 3-(2-(((4-methoxyphenyl)(methyl)amino)methyl)-4-oxo-6,7-dihydropyrazolo[1,5-a]pyrazin-5(4H)-yl)benzonitrile] | – | – | >13 | 2210 | 1.55 | > 30000 | – | –
19 | COc1cccc(N(C)Cc2cc3n(n2)CCN(c2ccc(F)cc2)C3=O)c1 [Compound 88, 5-(4-fluorophenyl)-2-(((3-methoxyphenyl)(methyl)amino)methyl)-6,7-dihydropyrazolo[1,5-a]pyrazin-4(5H)-one] | – | – | >29 | 1020 | 0.55 | > 30000 | – | –
20 | CCc1ccc(NCc2cc3n(n2)CCN(c2ccc(F)cc2)C3=O)cc1 [Compound 22, 2-(((4-ethylphenyl)amino)methyl)-5-(4-fluorophenyl)-6,7-dihydropyrazolo[1,5-a]pyrazin-4(5H)-one] | – | – | >19 | 1550 | -11 | > 30000 | – | –
21 | C[C@H]1CN(c2ccc(F)cc2)C(=O)c2cc(CNc3c(F)cccc3F)nn21 [Compound 73, (S)-2-(((2,6-difluorophenyl)amino)methyl)-5-(4-fluorophenyl)-7-methyl-6,7-dihydropyrazolo[1,5-a]pyrazin-4(5H)-one] | – | – | – | – | 4.07 | – | – | 63.9
22 | O=C1c2cc(CNc3ccc(OC(F)F)c(F)c3)nn2CCN1c1ccc(F)cc1 [Compound 38, 2-(((4-(difluoromethoxy)-3-fluorophenyl)amino)methyl)-5-(4-fluorophenyl)-6,7-dihydropyrazolo[1,5-a]pyrazin-4(5H)-one] | – | – | 3.19 | 489 | 2.28 | 1560 | – | 84.7
23 | COc1ccc(NC(C)c2cc3n(n2)CCN(c2ccc(F)cc2)C3=O)cc1 (stereo not drawn) [Compound 169, 5-(4-Fluorophenyl)-2-(1-((4-methoxyphenyl)amino)ethyl)-6,7-dihydropyrazolo[1,5-a]pyrazin-4(5H)-one] | – | – | >3.8 | 7740 | -6.64 | > 30000 | – | –
